# From ChEMBL document CHEMBL3507680, “University of Dundee, Gates Library screen for HepG2 cell viability”
# Experiment: Human HepG2 cell viability assay in 384 well format
# Assay type: toxicity, cell-based
# Parameters: dose 125 nL, time 70.5 hour; concentration not given beside the values
# Conditions: HepG2 cells, read-out: Inhibition
row,SMILES,cytotoxicity at 70.5 h [%]
1,Cc1occc1C(=O)NCC(=O)NCCOc1cccc(Cl)c1,-11.3
2,COC1CCN(C(=O)c2csc(-c3ccccc3F)n2)CC1,-4.85
3,NC(=O)C1CCN(CC(=O)NCCc2c(F)cccc2F)CC1,-7.99
4,Cc1cc(N2CCc3c(ncn3C)C2)nc(N)n1,-0.513
5,COc1ccccc1CN1CCN(CCN2CCOC2=O)CC1,8.76
6,CCc1nc(CCNC(=O)NC2CCSCC2)cs1,5.18
7,CC(NC(=O)Nc1ccc(S(C)(=O)=O)cc1)c1ccc2c(c1)CC(=O)N2 (stereo unspecified),-7.73
8,CS(=O)(=O)NC1CCN(C(=O)c2ccc3ccccc3c2)C1 (stereo unspecified),5.82
9,NC(=O)N1CCCN(CC(=O)NCCc2c(F)cccc2F)CC1,-6.21
10,O=C(NCC1(O)CCSC1)c1ccoc1 (stereo unspecified),-5.15
11,Cc1ccc(C(=O)NCc2ccccc2S(=O)(=O)N(C)CCO)cc1F,-1.52
12,O=C(CCc1cccs1)NCC1CCCN1c1cccnn1 (stereo unspecified),3.16
13,Cc1nsc(N2CCCN(C(=O)NCc3cccnc3)CC2)n1,-0.506
14,O=C(NCc1nncn1C1CC1)Nc1ccc(OC2CCC2)c(F)c1,-1.51
15,CCN1CCCC1CNC(=O)CCc1cccs1 (stereo unspecified),-3.71
16,O=C(c1ccc2nccn2c1)N1CCCC1c1noc(C2CC2)n1 (stereo unspecified),-5.7
17,CC(C)(C)NC(=O)CN1CCCN(Cc2ccc(C#N)cc2)CC1,-6.11
18,Cc1cc(C)c(CCNC(=O)CN2CCCN(C(N)=O)CC2)c(C)c1,15.4
19,N#CCCN(Cc1ccco1)C(=O)c1ccc(OCC2CC2)cc1,-4.89
20,CC(C)C(C)(C#N)NC(=O)CN1CCCN(Cc2ccccc2F)CC1 (stereo unspecified),-3.81
21,CCn1cnnc1C1CCN(C(=O)CC(C)n2cccc2)CC1 (stereo unspecified),-1.21
22,Cc1ccccc1-n1cnnc1SCC(=O)NCC1CCCO1 (stereo unspecified),-8.74
23,CCC(C)NC(=O)c1ccc(CNC(=O)CC(C)(C)C)cc1 (stereo unspecified),-9.82
24,CCC(C)NC(=O)c1cccc(CNC(=O)CC(F)(F)F)c1 (stereo unspecified),-6.23
25,Cc1ccc(C(=O)NCCNC(=O)c2cncnc2C)cc1F,-11.3

row,SMILES,cytotoxicity at 70.5 h [%]
1,CCCNC(=O)CNc1cc(C(=O)NCC(F)(F)F)cc(F)c1C,-6.37
2,COc1ccc(C(=O)NCCNC(=O)c2cncnc2C)cc1,-8.47
3,N#Cc1ccc(N2CCCC2Cn2cccn2)nc1 (stereo unspecified),-8.46
4,CCNC(=O)NCc1ccccc1NS(=O)(=O)c1ccccc1,-10.5
5,CCc1nccn1C1CCCN(C(=O)c2ccn(C)c(=O)c2)C1 (stereo unspecified),-0.0555
6,CCNC(=O)NCc1cccc(N2CC=CC2)c1,1.58
7,CCNC(=O)NC(C)(C)C(=O)NCc1cccc(N2CC=CC2)c1,2.33
8,CCNS(=O)(=O)C1CCN(C(=O)c2ccc(F)cc2)C1 (stereo unspecified),1.22
9,CCNS(=O)(=O)C1CCN(C(=O)c2c(F)cc(F)cc2F)C1 (stereo unspecified),-2.04
10,CN(Cc1ccncc1)Cc1nccn1Cc1ccccc1,-5.12
11,CCC(C)(NCC(=O)NC(C)C)c1nccs1 (stereo unspecified),-3.03
12,CC(=O)N1CCN(CC(=O)NCCCN(C)c2ccccc2)CC1,-7.53
13,Cc1cnn(CC2CCCN2c2ccc(C#N)cn2)c1 (stereo unspecified),6.54
14,COc1ccc(CNC(=O)N2CCOCC2C2CC2)cc1C (stereo unspecified),-3.69
15,CCc1nsc(N2CCN(CC(=O)Nc3c(C)n[nH]c3C)CC2)n1,2.39
16,COCCCN1CCC(NC2CSCCc3ccccc32)CC1 (stereo unspecified),2.22
17,CCN(CC(F)(F)F)C(=O)C1CCCN(Cc2ccccn2)C1 (stereo unspecified),-3.97
18,CCC1CN(Cc2c(O)ccc3oc4c(c23)CCCC4)CCO1 (stereo unspecified),8.92
19,O=C(CCNc1ncccn1)NCc1cccc(OC(F)F)c1,-11.7
20,CNS(=O)(=O)CC(=O)N1CC2(CCCC2)c2c(F)cccc21,0.789
21,COc1ccc2cccc(CC(=O)NCc3n[nH]c(=O)[nH]3)c2c1,-1.52
22,COc1ccc2cccc(CC(=O)NCc3nccc(N)n3)c2c1,-2.39
23,CCOCc1nnc(NCc2ccsc2)o1,-3.37
24,c1cc(CNc2nnc(Cc3ccsc3)o2)cs1,-8.44
25,c1coc(CNc2nnc(Cc3ccsc3)o2)c1,-3.55

row,SMILES,cytotoxicity at 70.5 h [%]
1,CC(C)Cc1nnc(NCc2ccsc2)o1,-5.09
2,CCN(CC(=O)N(C)C)C(=O)C(C)(C)c1ccc2c(c1)OCCO2,-8.05
3,COc1ccccc1NCC(=O)NCc1ccc(-c2ccn[nH]2)cc1,-4.94
4,CCn1ncc2c1CCCC2NCc1cscn1 (stereo unspecified),-5.01
5,Cc1nc(CN2CCN(C(C)C(=O)NC3CCCC3)CC2)cs1 (stereo unspecified),-5.82
6,Cc1ccc(C(=O)NC(CN2CCCC2)c2ccccc2)c(=O)[nH]1 (stereo unspecified),-3.04
7,COc1ccc(F)cc1CSCC(=O)N(C)CCC#N,0.901
8,COc1cc(F)ccc1N(C)Cc1cccnc1,15.7
9,CCOCc1ccccc1NC(=O)NCC(C)(O)c1cccs1 (stereo unspecified),-1.02
10,Cc1cc(NCC(=O)N(C)C)c(C(N)=O)cc1F,-0.553
11,CC(C)(C)c1nccc(N2CCN(C3CCS(=O)(=O)C3)CC2)n1 (stereo unspecified),-0.27
12,CCN1CCN(CCC(=O)NC2CC(c3cccc(Cl)c3)C2)CC1 (stereo unspecified),3.15
13,Cc1ccc(N2CCCC(NC(=O)CCc3ccccn3)C2=O)cc1 (stereo unspecified),0.525
14,Cc1ccc(N2CCCC(NC(=O)C(C)(C)C#N)C2=O)cc1 (stereo unspecified),1.69
15,CC(C)Cn1cnnc1C1CCCN1C(=O)c1cc2ccccn2c1 (stereo unspecified),14.5
16,CS(=O)(=O)CCC(=O)NC1CC(c2ccccc2Cl)C1 (stereo unspecified),2.56
17,COc1ccccc1C(=O)N1CCCC1c1nncn1CC(C)C (stereo unspecified),-0.719
18,Cc1cc(NCC2CC(=O)Nc3ccccc32)nc(C)n1 (stereo unspecified),-1.89
19,Cc1nc(C)c(C)c(N2CCC(NCCOc3ccccc3)CC2)n1,17.8
20,Cc1ncc2c(n1)CN(C(C(N)=O)c1ccc(F)cc1)CC2 (stereo unspecified),-2.82
21,COc1ccc(N(C(=O)c2cnc(C)cn2)C(C)C)cc1F,-3.96
22,Cc1cnn(-c2cccc(N3CCN(c4cc(C)nc(C)n4)CC3)n2)c1,15.5
23,N#Cc1cnc2ccccc2c1N1CCN(C(=O)C2CCC2)CC1,-1.5
24,COc1ccc(N(C(=O)c2ccccn2)C(C)C)cc1F,-3.02
25,CNC(=O)CN(C)C(=O)Cc1csc(C(C)C)n1,0.629

row,SMILES,cytotoxicity at 70.5 h [%]
1,COc1cccc2c1N(Cc1nc(C3CC3)no1)CCC2,5.14
2,CC(C)C(NC(=O)c1ccccc1F)C(=O)N1CCC2(CC1)OCCO2 (stereo unspecified),-1.01
3,COc1ccc2c(c1)C(=O)N(C)C1(CCN(CC=C(C)C)CC1)N2,-2.27
4,COCc1ccccc1C(=O)N1CCn2c(nnc2C(C)C)C1,-3.21
5,CC(C)C(O)CNC(=O)Nc1ccc(F)c(Cl)c1 (stereo unspecified),-0.302
6,COc1ccccc1N1CCCC(Nc2nccnc2C#N)C1 (stereo unspecified),-6.29
7,N#Cc1nccnc1NC1CCN(c2ccccc2OC(F)F)C1 (stereo unspecified),-5.2
8,CCn1cc(C(=O)Nc2ccc(C)cc2C(=O)OC)cn1,16
9,CCn1cc(C(=O)Nc2ccc(C)cc2C(=O)NC)cn1,-3.07
10,N#Cc1ccc(NCCC2CCN(CC(F)(F)F)CC2)nc1,2.24
11,FC(F)c1nnc2ccc(N3CCC4(CCOC4)C3)nn12 (stereo unspecified),7.83
12,COc1ccccc1S(=O)(=O)CCOC(C)C,-3.27
13,Cc1ccc(OCCN(C)Cc2cscn2)cc1,-2.46
14,COCCc1noc(CN2CCCc3cccc(OC)c32)n1,-4.64
15,COc1cccc(NC(=O)N(CCO)C2CCc3ccccc32)c1 (stereo unspecified),-0.598
16,Cc1ccc(CCNC(=O)c2cccnc2)o1,30.2
17,Cc1cccc(N(CCC(N)=O)C(=O)c2cnccn2)c1,-12.9
18,CC(=O)N1Cc2ccccc2CC1C(=O)Nc1cc(C)ccn1 (stereo unspecified),-15.2
19,CC(=O)N1Cc2ccccc2CC1C(=O)Nc1ccc(N(C)C)cn1 (stereo unspecified),-24.9
20,CC(=O)c1cccc(NC(=O)N(CCO)C2CCc3ccccc32)c1 (stereo unspecified),26.8
21,O=C(Nc1cn[nH]c1)N(CCCO)C1CCc2ccccc21 (stereo unspecified),-4.28
22,Cc1cc(CNC(=O)N2CCOC(c3ccccc3Cl)C2)no1 (stereo unspecified),-7.66
23,CN1CCN(C)C(CNc2c(C#N)cnc3ccc(Cl)cc23)C1 (stereo unspecified),-8.13
24,Cc1ccc(Br)cc1C(=O)Nc1cc(C(N)=O)n(C)c1,-8.22
25,COCCC(=O)Nc1nc2c(OC)cc(F)cc2s1,-4.65

row,SMILES,cytotoxicity at 70.5 h [%]
1,CCC1COCCN1C(=O)NCc1nccn1Cc1ccccc1 (stereo unspecified),-2.58
2,CC(C)Cn1ccnc1CNC(=O)N1CCCC1CN1CCOCC1 (stereo unspecified),-4.49
3,CCC1c2ccccc2CCN1CCNS(C)(=O)=O (stereo unspecified),-4.6
4,CCCC1c2ccccc2CCN1CCS(C)(=O)=O (stereo unspecified),-3.74
5,CC(Cc1cccc(F)c1)NCc1cnc(N2CCN(C)CC2)nc1 (stereo unspecified),9.92
6,CC(C)N(Cc1ccccn1)C(=O)CCC(=O)c1ccc(F)cc1F,-14.3
7,CN(C)C(=O)CN1CCN(c2cc(N3CCCC3CO)ncn2)CC1 (stereo unspecified),-4.56
8,CCc1nc(C2CCCN2Cc2ncc(C)c(OC)c2C)no1 (stereo unspecified),-5.08
9,CN1CCN(C(=O)c2occc2CN2C(=O)Cc3ccccc32)CC1,16
10,CCc1noc(CN(CCS(C)(=O)=O)C(C)(C)C)n1,20.2
11,COCCN1CCN(c2ccc(CN(C)C)cn2)CC1,16.1
12,CC(C)OCc1noc(C2CC=CC2)n1,-6.7
13,O=C(c1cc(F)ccc1Br)N1CCN(C(=O)C2CC2)CC1,17.3
14,O=C(c1ccc(=O)[nH]n1)N1CCC(CN2CCOCC2)CC1,-9.25
15,O=C(c1cnccn1)N1CCC(CN2CCOCC2)CC1,-7.46
16,CC(C)c1noc(C(C)S(=O)(=O)CC(=O)N2CCCC2)n1 (stereo unspecified),17.4
17,Cc1cc(C2CCCN2S(=O)(=O)c2cnn(C)c2)on1 (stereo unspecified),-6.62
18,O=C(c1ccccc1O)N1CCN(C(=O)C2CCC2)CC1,16.4
19,CCCNC(=O)C1CCN(CC(O)c2ccc(C(F)(F)F)cc2)CC1 (stereo unspecified),-5.86
20,CCC(C)(N)c1nc(C(C)C)cc(=O)[nH]1 (stereo unspecified),-4.71
21,COc1ccc(C(NCc2ccc(C#N)cc2)C2CC2)cc1 (stereo unspecified),-7.6
